Assay results taken from US20040152640A1, “Preparation for the prevention and or treatment of altered bone metabolism” (priority 2001, published 2004).

System: mouse bone marrow cells
Assay: Alkaline phosphatase (ALP) activity assay in mouse bone marrow cells (marker for osteoblast differentiation)
Format: cell-based
Set-up: dose or concentration left out as unconfirmed
Conditions: mice bone marrow cells, 3 weeks exposure; with ascorbic acid and β-glycerolphosphate; stimulation more pronounced than genistein
Experimental: Bone marrow cells were isolated from six months old female NMRI mice. After washing, the cells were diluted in phenol red free α-MEM (1% p/s, 15% charcoal treated FCS) and seeded in 24-well plates (1.25*10^6 cells/well). After 24 hours incubation (37° C., 5% CO2) the cells were exposed to the active components (1*10^−5, 1*10^−6 and 1*10^−7 M) together with ascorbic acid (50 μg/ml) and β-glycerolphosphate (1 mM). Exposure media were refreshed every 3 days. After 2 and 3 weeks of incubation, cells were washed with PBS and stored at −20° C. After lysis DNA amounts and alkaline phosphatase activities were determined as described below. The DNA amounts are measured to determine to the number of cells and the alkaline phosphatase activity is used as a marker for osteoblast differentiation. 300 μl lysis buffer (1×SSC/0.01% SDS) was added to the frozen cells. After 1 hour incubation (37° C.) the plates were sonified for 10 minutes and cell suspensions were used for ALP activity measurements. 25 μl cell lysate was transferred in duplicate to 96-well plates. 25 μl of 1*SSC/0.01% SDS served as a negative control. […] ALP activity was measured at a wavelength of 405 nm at room temperature during 10 minutes at 30-second intervals. […] Activity is expressed as nmol p-nitrophenol production/minute/well. (Mean±sem, 2 independent experiments measured in duplicate)

| Structure (SMILES) | alkaline phosphatase signal in differentiated osteoblasts |
| --- | --- |
| O=c1cc(-c2ccc(O)c(O)c2)oc2cc(O)cc(O)c12 [luteolin] | increased alkaline phosphatase signal |
| O=c1cc(-c2ccc(O)cc2)oc2cc(O)cc(O)c12 [apigenin] | increased alkaline phosphatase signal |
